# In patent US20250179550A1, “Methods to imbue polymeric materials with new structures and functions” (The Regents of the University of California, priority 2022, published 2025):
# How the values were obtained:
# MicD-F and ArtGox [1] = test: One-pot cyclodehydration and dehydrogenation of peptide substrates by MicD-F and ArtGox, LC-MS; assay type: biochemical, Microcystis aeruginosa; Arthrospira platensis
# From the text: Next, we explored whether MicD-F and ArtGox could act in synergy to convert peptides containing non-α-amino acids at the +1 site directly into the corresponding thiazoles 3(a-i) (FIG. 9A). […] ArtGox efficiently oxidized each thiazoline to the corresponding thiazole in yields that exceeded 97% over the two steps for every example (products 3(a-i)) (FIGS. 9B and D). UHPLC analysis of each reaction mixture confirmed that thiazoles 3a-e were the sole reaction product. Coelution with excess flavin mononucleotide precluded UHPLC analysis of thiazoles 3f-i (FIG. 18).
# Reactions were analyzed as described above. Under these conditions, every peptide evaluated was a substrate for MicD-F and a few were substrates for both MicD-F and ArtGox (FIG. 10B-C). Substrates containing β^3-amino acid-, β^2-amino acid-, or cyclic β^2,β^3-amino acids at the −1 site (substrates 4(a-d)), were fully consumed under these conditions (<1% unmodified peptide). […] In contrast, substrate 4b, with geminal β^2-methyl substituents, was converted into a 30/70 mixture of thiazoline 5b and thiazole 6b. Substrates 4e-g containing aramid monomers at the −1 position reacted more slowly under these conditions, producing the analogous thiazoline products in 65-85% yield after 24 h reaction at pH 8 (FIG. 10B-C). […] With the exception of substrate 4c, increasing the pH to 9.0 promoted formation of the desired thiazole product (FIG. 21B-C). However, even under these conditions only substrate 4b (88%) yielded greater than 41% thiazole product (FIG. 21B-C). […] ArtGox appears especially intolerant of substitution or sp^2 hybridization at the β^3-position of substrates at the −1 site.
# A typical reaction scale for analysis via LC-MS was 30 μL. Peptide substrate stock (3 L) suspended at 1 mM in 10 mM bicine, 150 mM NaCl, 1 mM TCEP, pH 9.0 was added to 21 L of reaction buffer (7.14 mM ATP, 7.14 mM MgCl2, 2.86 mM FMN, 100 mM bicine, 150 mM NaCl, 1 mM TCEP, pH 8.0 or 9.0). Separately, aliquots of MicD-F (500 M in 20 mM HEPES, 150 mM NaCl, 1 mM TCEP, pH 7.4) and ArtGox (800 M in 20 mM HEPES, 150 mM NaCl, 1 mM TCEP, pH 7.4) were thawed on ice. The thawed enzyme aliquots were then diluted with cold storage buffer (20 mM HEPES, 150 mM NaCl, 1 mM TCEP, pH 7.4) to a concentration equal to 10× the desired enzyme concentration. The peptide and enzyme solutions were then incubated at 37° C. for 15 minutes. After temperature equilibration, enzyme solutions (3 μL of each) were added to the peptide solution and gently pipette mixed. The resulting solution was then incubated at 37° C. for the indicated amount of time before LC-MS analysis.
# To remove 6×His-tagged enzymes, Ni-NTA (Qiagen, Hilden, Germany) slurry and crude reaction were mixed 1:1 by volume and incubated on ice for 30 minutes with occasional agitation. The Ni-NTA resin was then removed by centrifugation at 21,300×g for 10 minutes at 4° C. Enzyme-depleted reaction mixture (1 μL) was used for LC-MS analysis which was performed on an Agilent 1290 Infinity II HPLC connected to an Agilent 6530B QTOF AJS-ESI. The mobile phase for LC-MS was water and acetonitrile with 0.1% (v/v) formic acid and a flow rate of 0.7 mL/min. Each sample was injected onto an Eclipse XDB C-18 column (2.1×50 mm, 1.8-Micron, room temperature, Agilent) and separated using a linear gradient from 5 to 95% acetonitrile over 4.5 minutes after an initial hold at 5% acetonitrile for 0.5 minutes. The following parameters were used during acquisition: Fragmentor voltage 175 V, gas temperature 300° C., gas flow 8 L/min, sheath gas temperature 350° C., sheath gas flow 11 L/min, nebulizer pressure 35 psi, skimmer voltage 65 V, Vcap 3500 V, 1 spectra/s.
# MicD-F [2] = test: MicD-F-catalyzed cyclodehydration of leader-free peptide substrates, LC-MS; assay type: biochemical, Microcystis aeruginosa; conditions: pH 8.0, 37° C.; for cyclodehydration by MicD-F: 50 mol % MicD-F, 24 hours
# Experimental: We began by exploring the tolerance of MicD-F for sequences containing non-α-amino acid monomers at the +1 site (FIG. 8A and FIG. 9A-B). A series of nine potential substrates were prepared in which a non-α-amino acid preceded the reaction site (substrates 1(a-i)). Monomers evaluated included arenes, aramids, fluorophores, and linear and cyclic β-amino acids. […] Cyclization was analyzed initially via liquid chromatography-mass spectrometry (LC-MS) and the extent of product formation estimated by integrating the extracted ion chromatogram (FIG. 9B-C). Virtually every substrate examined underwent MicD-F-catalyzed cyclization to the corresponding thiazoline under these conditions. Substrates containing electron-withdrawing or donating aromatic rings, bulky multi-ring systems, and linear and cyclic β-amino acids were all cyclized efficiently by MicD-F, with yields between 91 and 99% (products 2(a-i)). UHPLC analysis of each reaction mixture confirmed that thiazolines 2a-i were the sole reaction products under these conditions (FIG. 16).
# A typical reaction scale for analysis via LC-MS was 30 μL. Peptide substrate stock (3 μL) suspended at 1 mM (10 mM bicine, 150 mM NaCl, 1 mM TCEP, pH 9.0) was added to 24 μL of reaction buffer (6.25 mM ATP, 6.25 mM MgCl2, 100 mM bicine, 150 mM NaCl, 1 mM TCEP, pH 8.0 or 9.0). Separately, an aliquot of MicD-F (500 M in 20 mM HEPES, 150 mM NaCl, 1 mM TCEP, pH 7.4) was thawed on ice. The thawed enzyme aliquot was then diluted with cold storage buffer (20 mM HEPES, 150 mM NaCl, 1 mM TCEP, pH 7.4) to a concentration equal to 10× the desired enzyme concentration. The peptide and enzyme solutions were then incubated at 37° C. for 15 minutes. After temperature equilibration, enzyme solution (3 μL) was added to the peptide solution and gently pipette mixed. The resulting solution was then incubated at 37° C. for the indicated amount of time before LC-MS analysis.
# To remove 6×His-tagged enzymes, Ni-NTA (Qiagen, Hilden, Germany) slurry and crude reaction were mixed 1:1 by volume and incubated on ice for 30 minutes with occasional agitation. […]
# MicD-F and ArtGox [3] = test: Reaction of protein substrates with MicD-F and ArtGox in tandem, LC-MS deconvoluted mass; assay type: biochemical, Microcystis aeruginosa; Arthrospira platensis; conditions: 50 mol % MicD-F, 80 mol % ArtGox, pH 9.0, 37° C., 24 hours
# Experimental: Reactions of proteins with MicD-F and ArtGox were performed in the manner described above with minor modifications. The substrate stock was a 1 mM solution of protein in 20 mM HEPES, 150 mM NaCl, 1 mM TCEP, pH 7.4. Reactions were carried out at either 25° C. or 37° C. as indicated.
# (§1) Unprocessed reaction mixture (1 μL) was used for LC-MS analysis which was performed on an Agilent 1290 Infinity II HPLC connected to an Agilent 6530B QTOF AJS-ESI. The mobile phase for LC-MS was water and acetonitrile with 0.1% (v/v) formic acid and a flow rate of 0.4 mL/min. Each sample was injected onto a Poroshell 300SB-C8 column (2.1×75 mm, 5-Micron, room temperature, Agilent) using a linear gradient from 5 to 55% acetonitrile over 8 minutes after an initial hold at 5% acetonitrile for 2 minutes (0.4 mL/min). The following parameters were used during acquisition: Fragmentor voltage 225 V, gas temperature 300° C., gas flow 10 L/min, sheath gas temperature 350° C., sheath gas flow 11 L/min, nebulizer pressure 35 psi, skimmer voltage 65 V, Vcap 5000 V, 1 spectra/s. Intact protein masses were obtained via deconvolution using the Maximum Entropy algorithm in Mass Hunter Bioconfirm (V10, Agilent).
# MicD-F [4] = test: Reaction of protein substrates (mCherry and Rop variants) with MicD-F, LC-MS deconvoluted mass; assay type: biochemical, Microcystis aeruginosa; conditions: 50 mol % MicD-F, 24 hours
# Experimental: Reactions of proteins with MicD-F were performed in the manner described above with minor modifications. Namely, the substrate stock was a 1 mM solution of protein in 20 mM HEPES, 150 mM NaCl, 1 mM TCEP, pH 7.4.
# as §1
# [5] = 50 mol % MicD-F, 8 mol % ArtGox, pH 8.0, 37° C., 24 h
# [6] = 50 mol % MicD-F, 8 mol % ArtGox, pH 8.0, 37° C., 24 h, −1 site substrates
# MicD-F, sequence (as listed by the source): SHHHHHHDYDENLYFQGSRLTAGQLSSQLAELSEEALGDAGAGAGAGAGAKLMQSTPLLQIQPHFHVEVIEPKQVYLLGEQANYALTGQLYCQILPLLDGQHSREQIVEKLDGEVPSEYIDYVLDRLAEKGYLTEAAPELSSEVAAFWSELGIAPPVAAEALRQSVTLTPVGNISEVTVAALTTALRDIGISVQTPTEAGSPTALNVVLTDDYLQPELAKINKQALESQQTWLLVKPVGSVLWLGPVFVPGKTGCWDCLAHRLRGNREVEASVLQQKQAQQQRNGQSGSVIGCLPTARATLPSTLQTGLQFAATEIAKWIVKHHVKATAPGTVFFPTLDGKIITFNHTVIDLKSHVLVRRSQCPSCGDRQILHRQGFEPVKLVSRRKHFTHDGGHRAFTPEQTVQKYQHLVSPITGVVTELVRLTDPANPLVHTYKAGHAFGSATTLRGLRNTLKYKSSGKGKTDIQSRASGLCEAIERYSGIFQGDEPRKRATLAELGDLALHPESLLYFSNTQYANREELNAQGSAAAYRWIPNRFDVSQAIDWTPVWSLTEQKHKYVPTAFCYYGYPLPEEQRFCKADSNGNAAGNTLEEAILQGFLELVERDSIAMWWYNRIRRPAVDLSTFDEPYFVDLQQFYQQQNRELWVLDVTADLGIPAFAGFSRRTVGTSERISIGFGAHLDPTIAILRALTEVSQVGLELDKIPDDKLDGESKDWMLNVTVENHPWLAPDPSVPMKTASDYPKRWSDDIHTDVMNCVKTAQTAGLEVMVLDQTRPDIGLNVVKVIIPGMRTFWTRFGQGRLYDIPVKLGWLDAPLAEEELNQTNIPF
substance,measurement,setting,value
IC-[ACPC]-AYDG [substrate 4d],conversion into thiazoline,MicD-F and ArtGox [1]; [5],converted cleanly
same,thiazole formation,MicD-F and ArtGox [1]; [5],no
IC-[B2-Dimethyl]-AYDG [substrate 4b],yield of thiazole product,MicD-F and ArtGox [1]; [6],70%
same,yield of thiazoline product,MicD-F and ArtGox [1]; [6],30%
same,yield of thiazole product,"MicD-F and ArtGox [1]; 50 mol % MicD-F, 8 mol % ArtGox, pH 9.0, 37° C., 24 h, −1 site substrates",88%
ITAYDG,cyclodehydration by MicD-F,MicD-F [2],significant cyclodehydration
IC-[ACHC]-AYDG [substrate 4c],conversion into thiazoline,MicD-F and ArtGox [1]; [5],converted cleanly
same,thiazole formation,MicD-F and ArtGox [1]; [5],no
ICAYDG [reference compound],conversion by MicD-F,"MicD-F [2]; 5 mol % MicD-F, 4 h",complete conversion
same,two-step conversion into thiazole,"MicD-F and ArtGox [1]; 5 mol % MicD-F, 40 mol % ArtGox, pH 8.0, 37° C., 16 h",complete two-step conversion
"ICIAYDG [model peptide with α-amino acid Ile between the site of cyclization and the AYD motif, reference compound]",cyclodehydration by MicD-F,MicD-F [2],complete reaction
same,thiazole formation,MicD-F and ArtGox [1]; [5],complete conversion
"mCherryC+: mCherry variant with MCAYDG appended to the C-terminus, SEQ ID NO: 9",thiazole installation (mass shift relative to MicD-F only),MicD-F and ArtGox [3],expected −2 Da shift
same,cyclodehydration of mCherry variants to thiazoline (loss of water),"MicD-F [4]; pH 9.0, 37° C.",virtually complete conversion
same,cyclodehydration of mCherry variants to thiazoline (loss of water),"MicD-F [4]; pH 9.0, 42° C.",nearly completely converted
IC-[B3-HIle]-AYDG [substrate 4a],conversion into thiazoline,MicD-F and ArtGox [1]; [5],converted cleanly
same,thiazole formation,MicD-F and ArtGox [1]; [5],little
